From patent publication US10781227B2, “Application of metal complexes in anti-tumor and anti-bacterial therapy” (biolitec Unternehmensbeteiligungs II AG, priority 2018, dated 2020)

Tests used:
[1] = system: Staphylococcus aureus DSM 11729; assay: Antibacterial testing, colony-forming units after incubation with or without white light; format: cell-based; conditions: 100, 10 or 1 μM; for activity against S. aureus under irradiation: 30 min incubation, white light about 100 J/cm^2, CFU/ml; for activity/toxicity against S. aureus without light: no illumination, CFU/ml
Experimental: (§1) The organisms studied were Staphylococcus aureus DSM 11729, Gram-positive; Acinetobacter baumannii DSM30007, and Klebsiella pneumoniae DSM30104, both Gram-negative. Cultures cells are suspended in sterile phosphate-buffered saline (PBS) or sterile PBS supplemented with 10% sterile horse blood serum. The bacterial suspensions are placed into sterile black well plates with clear bottoms. Concentrations of photosensitizer used in the study were as follows: 100 μM, 10 μM and 1 μM. After an incubation time period of 30 minutes, the samples are exposed to white light, with a power density and irradiation time resulting in an energy fluency of about 100 J/cm^2. Control plates contained no photosensitizer and are not exposed to laser light. The control samples for dark toxicity are only exposed to photosensitizer without any illumination. After irradiation, the samples are removed and suspended again in the culture media. The numbers of colony-forming units (CFU/ml) are enumerated after an adequate incubation time period.

[2] = system: HT29, L929, A431, A253, CAL-27 and J774A.1 cell lines; assay: Cell test of photodynamic activity and light independent toxicity, XTT cell viability assay; format: cell-based, human, mouse; conditions: for activity against the cell lines under irradiation (phototoxicity): 2 or 10 μM photosensitizer, 24 h incubation, white light 50 J/cm^2, XTT after 24 h; for activity against the cell lines without light / toxicity against tumor cells in the absence of light: 2 or 10 μM; for activity against the cell lines without light: no irradiation (dark toxicity); for toxicity against tumor cells in the absence of light: no irradiation
Experimental: The photosensitizing activity was determined in the following cell lines: • HT29 (human colon adenocarcinoma cell line) • L929 (mouse fibroblast cell line) • A431 (human epidermoid carcinoma cell line) • A253 (submaxillary salivary gland, epidermoid cell line) • CAL-27 (human tongue squamous cell carcinoma cell line) • J774A.1 (Mouse BALB/c monocyte macrophage). The cell lines were grown in DMEM (PAA Laboratories GmbH) supplemented with 10% heat-inactivated fetal calf serum (FCS, PAA Laboratories GmbH), 1% penicillin (10000 IU) and streptomycin (10000 μg/ml, PAA Laboratories GmbH). Cells were kept as a monolayer culture in a humidified incubator (5% CO2 in air at 37° C.). A photosensitizer stock solution (2 mM) was performed in DMSO and was kept in the dark at 4° C. […] Cells were incubated with fresh medium (DMEM without phenol red) containing 10% FCS with 2 or 10 μM of the photosensitizer for 24 h before light exposure. Before photosensitization, cells were washed, cell culture medium was exchanged with DMEM without phenol red and 10% FCS, then irradiated at room temperature with white light source at a fixed fluence rate of about 100 mW/cm^2 (50 J/cm^2). Following irradiation, cells were incubated in a humidified incubator (5% CO2 in air at 37° C.) for 24 h until cell viability assay. […] Solution was stored in the dark at −20° C. until use. A sterile solution containing PMS ([…], Applichem GmbH) was needed as an activation reagent for the XTT. 0.383 mg PMS was dissolved in 1 ml PBS-Buffer. The solution should be stored frozen and should not be exposed to light. The XTT reagent solution was thawed in a 37° C. water bath and the activation solution (PMS) was added immediately prior to use. To prepare a reaction solution sufficient for one micro plate (96 wells), 0.1 ml activation solution (PMS) was given to 5 ml XTT reagent. The medium in the micro plate was exchanged with RPMI without phenol red and 10% FCS (100 μl) prior adding 50 μl XTT reaction solution per well. The micro plate was incubated for 2-3 hours at 37° C. and 5% CO2 until an orange dye was formed. The micro plate has been shaken gently to evenly distribute the dye in the wells. The absorbance of the samples was measured with a spectrophotometer (Infinite 200, Tecan Group Ltd.) at a wavelength of 490 nm.

[3] = system: Staphylococcus aureus DSM 11729; Acinetobacter baumannii DSM30007; Klebsiella pneumoniae DSM30104; assay: Antibacterial testing, bacteria not specified; format: cell-based; conditions: PBS supplemented with 10% sterile horse blood serum
Experimental: as §1

[4] = system: Klebsiella pneumoniae DSM30104; assay: Antibacterial testing, colony-forming units after incubation with or without white light; format: cell-based; conditions: 100, 10 or 1 μM
Experimental: as §1

Substance | activity against S. aureus under irradiation [1] | activity/toxicity against S. aureus without light [1] | activity against the cell lines under irradiation (phototoxicity) [2] | activity against the cell lines without light [2] | antibacterial activity in the presence of complex media (serum addition) [3] | activity against K. pneumoniae under irradiation ([4]; 30 min incubation, white light about 100 J/cm^2, CFU/ml) | activity against K. pneumoniae without light ([4]; no illumination, CFU/ml) | toxicity against tumor cells in the absence of light [2]
Tris[5-(4-β-D-thiogalactosyl)-2,3,5,6-tetrafluorophenyl)dipyrrinato gallium(III) [Example 4.5] | high activity | nearly no activity | high activity | no activity |  |  |  | 
Tris[5-(4-β-D-thioglucosyl)-2,3,5,6-tetrafluorophenyl)dipyrrinato gallium(III) [Example 4.3] | high activity | nearly no activity | high activity | no activity | antibacterial activity is also observed | high activity | nearly no activity | 
[bis(2,2′-bipyridyl(4-(hexyloxy)-2,3,5,6-tetrafluorophenyl)-dipyrrinato)]ruthenium(II) chloride [Example 4.6] |  |  |  |  |  |  |  | high toxicity
[bis(2,2′-bipyridyl(4-(prop-2-enylamino)-2,3,5,6-tetrafluorophenyl)-dipyrrinato)]ruthenium(II) chloride [Example 4.7] |  | high toxicity |  |  | antibacterial activity is also observed |  |  | high toxicity
[bis(2,2′-bipyridyl(4-(prop-2-enyloxy)-2,3,5,6-tetrafluorophenyl)-dipyrrinato)]ruthenium(II) chloride [Example 4.8] |  | high toxicity |  |  |  |  |  | high toxicity
